{
  "source": "BindingDB's records for patent US11344546",
  "about": "(Recurium Ip Holding, 2022)",
  "molecular_target": "Apoptosis regulator Bcl-2 (Homo sapiens, UniProt P10415)",
  "sequence (P10415 whole entry)": "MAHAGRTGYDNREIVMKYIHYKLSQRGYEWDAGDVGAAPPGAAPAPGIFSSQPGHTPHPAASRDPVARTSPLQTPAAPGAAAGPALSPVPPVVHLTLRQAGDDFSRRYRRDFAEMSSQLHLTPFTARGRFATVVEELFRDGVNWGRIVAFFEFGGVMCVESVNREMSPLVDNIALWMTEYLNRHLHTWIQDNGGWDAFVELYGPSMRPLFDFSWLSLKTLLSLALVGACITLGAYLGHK",
  "experiment": "Binding Assay",
  "experimental": "Table 1: Binding to Bcl-2 proteins Bcl-2, and Bcl-XL was assessed using the Bcl2scan platform: T7 phage strains displaying BCL2 proteins were grown in parallel in 24-well blocks in an E. coli host derived from the BL21 strain. E. coli were grown to log-phase and infected with T7 phage from a frozen stock (multiplicity of infection=0.4) and incubated with shaking at 32° C. until lysis (90-150 minutes). The lysates were centrifuged (5,000×g) and filtered (0.2 μm) to remove cell debris. […] The liganded beads were blocked with excess biotin and washed with blocking buffer (SeaBlock (Pierce), 1% BSA, 0.05% Tween 20, 1 mM DTT) to remove unbound ligand and to reduce non-specific phage binding. […] Test compounds were prepared as 100× stocks in 100% DMSO. Kds were determined using an 11-point 3-fold compound dilution series with one DMSO control point. […] The compounds were then diluted directly into the assays such that the final concentration of DMSO was 0.9%. All reactions performed in polypropylene 384-well plates. Each was a final volume of 0.02 ml.",
  "data": [
    {"compound": "CCC12CC(C3=C(CN4CCN(c5ccc(C(=O)NS(=O)(=O)c6ccc(OCC7(F)CCOCC7)c([N+](=O)O)c6)c(Oc6cnc7[nH]ccc7c6)c5)CC4)CCC(C)(C)C3)(C1)C2", "note": "[US11344546, Example 26]", "values": [
      {"measurement": "Kd", "value": "< 10", "unit": "nM"}
    ]}
  ]
}
